Read-outs that look alike come from different tables or passages of the source.
What was measured:
Settings in all cases: Homo sapiens
[1] = system: MCF-7; experiment: MTT cancer cell proliferation assay, MCF-7; type: cell-based, human
Procedure: (§1) In Vitro Determination of Effects of Synthesized Diterpenoids on Cancer Cell Proliferation. Breast cancer cell lines MCF-7, MDA-MB-231, […] and MCF/ADR were seeded in 96-well plates at a density of 1×10^4 cells/well and treated with DMSO and 0.01, 0.1, 1, 5, 10, and 100 μM of individual compound for 48 h, and then 20 μL of 3-(4,5-dimethylthiazol-2-yl)-2,5-diphenyltetrazolium bromide (MTT) (5 mg/mL in PBS) was added to each well and further incubated for another 4 h. Then MTT solution was removed, and 150 μL of DMSO was added to each well. Absorbance of all wells was determined by measuring OD at 550 nm after a 10 min incubation on a 96-well GlowMaxate absorbance reader (Promega, Madison, Wis.). Each individual compound was tested in quadruplicate wells for each concentration.
(§2) The growth inhibitory effects of the newly generated pyran-fused diterpenoids were evaluated in four breast cancer cell lines MCF-7 (ER-positive), MDAMB-231 (ER-negative and triple-negative), MDA-MB-468 (ER-negative and triple-negative) as well as MCF-7/ADR (adriamycin-resistant) using MTT assays as described in the Experimental Section.

[2] = system: MDA-MB-231; experiment: MTT cancer cell proliferation assay, MDA-MB-231; type: cell-based, human
Procedure: as §1, §2

[3] = system: AsPC1; experiment: Cancer cell proliferation assay, AsPC1; type: cell-based
Procedure: (§3) In Vitro Determination of Effects of Synthesized Diterpenoids on Cancer Cell Proliferation. […] Then MTT solution was removed, and 150 μL of DMSO was added to each well. Absorbance of all wells was determined by measuring OD at 550 nm after a 10 min incubation on a 96-well GlowMaxate absorbance reader (Promega, Madison, Wis.). Each individual compound was tested in quadruplicate wells for each concentration.

[4] = system: Panc-1; experiment: Cancer cell proliferation assay, Panc-1; type: cell-based
Procedure: as §3

[5] = MCF7, read-out: IC50 (μM) MCF-7
[6] = MDA-MB-231, read-out: IC50 (μM) MDA-MB-231
[7] = ASPC1, read-out: IC50 (μM) AsPC1
[8] = PANC-1, read-out: IC50 (μM) Panc-1
[9] = MCF7, Table 2a, A-ring modified analogues, read-out: IC50 (μM) MCF-7
[10] = MDA-MB-231, Table 2a, A-ring modified analogues, read-out: IC50 (μM) MDA-MB-231
[11] = ASPC1, Table 2a, A-ring modified analogues, read-out: IC50 (μM) AsPC1
[12] = PANC-1, Table 2a, A-ring modified analogues, read-out: IC50 (μM) Panc-1
[13] = MCF7, read-out: Antiproliferative effect MCF-7 (IC50)
[14] = MDA-MB-231, read-out: Antiproliferative effect MDA-MB-231 (IC50)
[15] = MCF7, Table 1b, triazole substituted analogues, mean of three experiments, read-out: IC50 (μM) MCF-7
[16] = MDA-MB-231, Table 1b, triazole substituted analogues, mean of three experiments, read-out: IC50 (μM) MDA-MB-231

Row | Compound | IC50 [1, 5] [µM] | IC50 [2, 6] [µM] | IC50 [3, 7] [µM] | IC50 [4, 8] [µM] | IC50 [1, 15] [µM] | IC50 [2, 16] [µM] | other results
1 | C=C1C(=O)[C@]23[C@H](O)[C@H]1CC[C@H]2[C@@]12COC3(O)[C@@H](O)[C@@H]1C(C)(C)CC1=C2O[C@]2(CC1)CC(C)(C)[C@H]1[C@H](O)[C@]3(O)OC[C@]1(C2=O)[C@@H]1CC[C@H]2C(=C)C(=O)[C@]13[C@@H]2O [CYD-5-40-2, (2R,4aR,5S,6S,6aR,6a′R,7′S,8′S,8a′R,9S,11aS,11bS,11′S,13a′S,13b′S,14R,16′R)-5,6,7′,8′,14,16′-hexahydroxy-4,4,6′,6′-tetramethyl-8,10′-dimethylene-4,4a,5,6,6′,6a′,7′,8′,9,10,11,11a,11′,12′,13′,13a′-hexadecahydro-3′H-spiro[6,11b-(epoxymethano)-6a,9-methanocyclohepta[a]naphthalene-2,2′-8,13b-(epoxymethano)-8a,11-methanocyclohepta[3,4]benzo[1,2-h]chromene]-1,7,9′(3H,4′H,5′H,8H,10′H)-trione] | 4.82 | 9.64 | 10.2 | 8.07 |  |  | 
2 | C=C1C(=O)[C@]23[C@H](O)[C@H]1CC[C@H]2[C@@]12COC3(O)[C@@H](O)[C@@H]1C(C)(C)CC13CC[C@]4(CC(C)(C)[C@H]5[C@H](O)[C@]6(O)OC[C@]5(C4=O)[C@@H]4CC[C@H]5C(=C)C(=O)[C@]46[C@@H]5O)OC12O3 (stereo partly drawn) [CYD-6-39, (2R,4aR,4a′R,5′S,6aR,6′S,6a′R,7S,8S,8aR,9′S,11S,11a′S,11b′S,13aS,13bS,13cR,14′R,17R)-5′,6′,7,8,14′,17-hexahydroxy-4′,4′,6,6-tetramethyl-8′,10-dimethylenehexadecahydro-3H-spiro[4a,13c-epoxy-8,13b-(epoxymethano)-8a,11-methanocyclohepta[3,4]benzo[1,2-h]chromene-2,2′-6,11b-(epoxymethano)-6a,9-methanocyclohepta[a]naphthalene]-1′,7′,9(3′H,4H,5H,8′H,10H)-trione] |  |  |  |  |  |  | IC50 [1, 9]: > 10 µM; IC50 [2, 10]: > 10 µM; IC50 [3, 11]: 104 µM; IC50 [4, 12]: > 10 µM
3 | C=C1C(=O)[C@@]23[C@@H]4OC(C)(C)OC25OC[C@]2(C=CCC(C)(C)[C@H]2[C@@H]5O)[C@@H]3CC[C@@H]14 [CYD-6-75, (3S,3aR,3a^1R,6aR,7S,7aR,11aR,11bS)-7-hydroxy-5,5,8,8-tetramethyl-15-methylene-2,3,3a,7,7a,8,9,11b-octahydro-1H-6a,11a-(epoxymethano)-3,3a^1-ethanophenanthro[1,10-de][1,3]dioxin-14-one] |  |  |  |  |  |  | IC50 [1, 9]: 0.95 µM; IC50 [2, 10]: 3.95 µM; IC50 [3, 11]: 6.78 µM; IC50 [4, 12]: 7.25 µM
4 | C=C1C(=O)[C@@]23[C@@H]4OC(C)(C)OC25OC[C@]2(C(=O)/C(=C\N(C)C)CC(C)(C)[C@H]2[C@@H]5O)[C@@H]3CC[C@@H]14 [CYD-6-77, (3S,3aR,3a^1R,6aR,7S,7aR,11aS,11bS,Z)-10-((dimethylamino)methylene)-7-hydroxy-5,5,8,8-tetramethyl-15-methyleneoctahydro-1H-6a,11a-(epoxymethano)-3,3a^1-ethanophenanthro[1,10-de][1,3]dioxine-11,14(2H)-dione] | 9.07 | 165 | 11.8 | > 10 |  |  | 
5 | C=C1C(=O)[C@@]23[C@@H]4OC(C)(C)OC25OC[C@]2(C=C[C@H](O)C(C)(C)[C@H]2[C@@H]5O)[C@@H]3CC[C@@H]14 [CYD-6-81, (3S,3aR,3a^1R,6aR,7S,7aS,9S,11aR,11bS)-7,9-dihydroxy-5,5,8,8-tetramethyl-15-methylene-2,3,3a,7,7a,8,9,11b-octahydro-1H-6a,11a-(epoxymethano)-3,3a^1-ethanophenanthro[1,10-de][1,3]dioxin-14-one] |  |  |  |  |  |  | IC50 [1, 9]: 2.56 µM; IC50 [2, 10]: 10.5 µM; IC50 [3, 11]: > 10 µM; IC50 [4, 12]: 5.24 µM
6 | C=C1C(=O)[C@]23[C@H](O)[C@H]1CC[C@H]2[C@]12C=CCC(C)(C)[C@H]1[C@H](O)[C@@]3(O)OC2 [CYD-6-82, (4aR,5S,6S,6aR,9S,11aS,11bR,14R)-5,6,14-trihydroxy-4,4-dimethyl-8-methylene-4,4a,5,6,9,10,11,11a-octahydro-3H-6,11b-(epoxymethano)-6a,9-methanocyclohepta[a]naphthalen-7(8H)-one] | 0.79 | 3.9 | 1.09 | 1.19 |  |  | 
7 | C=C1C(=O)[C@]23[C@H](O)[C@H]1CC[C@H]2[C@]12C=C[C@H](O)C(C)(C)[C@H]1[C@H](O)[C@@]3(O)OC2 [CYD-6-90, (3S,4aS,5S,6S,6aR,9S,11aS,11bR,14R)-3,5,6,14-tetrahydroxy-4,4-dimethyl-8-methylene-4,4a,5,6,9,10,11,11a-octahydro-3H-6,11b-(epoxymethano)-6a,9-methanocyclohepta[a]naphthalen-7(8H)-one] |  |  |  |  |  |  | IC50 [1, 9]: 1.21 µM; IC50 [2, 10]: 26.1 µM; IC50 [3, 11]: > 10 µM; IC50 [4, 12]: > 10 µM
8 | C=C1C(=O)[C@]23[C@H](O)[C@H]1CC[C@H]2[C@]12C=CC(=O)C(C)(C)[C@H]1[C@H](O)[C@@]3(O)OC2 [CYD-6-93, (4aS,5S,6S,6aR,9S,11aS,11bR,14R)-5,6,14-trihydroxy-4,4-dimethyl-8-methylene-4,4a,5,6,9,10,11,11a-octahydro-3H-6,11b-(epoxymethano)-6a,9-methanocyclohepta[a]naphthalene-3,7(8H)-dione] | 0.71 | 10.3 | 10.2 | 9.67 |  |  | IC50 [1, 13]: 3.48 ± 2.16 µM; IC50 [2, 14]: 9.39 ± 0.48 µM
9 | C=C1C(=O)[C@@]23C(=O)[C@@H](O)[C@@H]4C(C)(C)[C@@H]5OC[C@]4(C(=O)/C5=C\O)[C@@H]2CC[C@@H]1[C@H]3O [CYD-7-5] | > 10 | > 10 | > 10 | > 10 |  |  | IC50 [1, 13]: > 30 µM; IC50 [2, 14]: > 30 µM
10 | C=C1C(=O)[C@@]23C(=O)[C@@H](O)[C@@H]4C(C)(C)[C@@H]5OC[C@]4(C(=O)/C5=C/OC)[C@@H]2CC[C@@H]1[C@H]3O [CYD-7-13] |  |  |  |  |  |  | IC50 ([1]; MCF7, Table 1c, dienone analogues, mean ± SE of three experiments, read-out: Antiproliferative effect MCF-7 (IC50)): 10.2 ± 3.07 µM; IC50 ([2]; MDA-MB-231, Table 1c, dienone analogues, mean ± SE of three experiments, read-out: Antiproliferative effect MDA-MB-231 (IC50)): > 30 µM
11 | C=C1C(=O)[C@]23[C@H](O)[C@H]1CC[C@H]2[C@]12C=C[C@@H](n4cc(-c5ccccc5)nn4)C(C)(C)[C@H]1[C@H](O)C3(O)OC2 [CYD-7-82] |  |  |  |  | 2.3 | 1.8 | 
12 | C=C1C(=O)[C@@]23[C@@H]4OC(C)(C)OC25OC[C@]2([C@@H](n6cc(-c7ccccc7)nn6)C=CC(C)(C)[C@H]2[C@@H]5O)[C@@H]3CC[C@@H]14 [CYD-7-86] |  |  |  |  | 0.38 | 0.48 | 
13 | C=C1C(=O)[C@]23[C@H](O)[C@H]1CC[C@H]2[C@@]12COC3(O)[C@@H](O)[C@@H]1C(C)(C)C=C[C@@H]2n1cc(-c2ccccc2)nn1 [CYD-7-90] |  |  |  |  | 2.1 | 1.8 | 
14 | C=C1C(=O)[C@@]23[C@@H]4OC(C)(C)OC25OC[C@]2([C@H](O)[C@@H](n6cc(-c7ccc(C(C)(C)C)cc7)nn6)CC(C)(C)[C@H]2[C@@H]5O)[C@@H]3CC[C@@H]14 [CYD-8-3] |  |  |  |  | 2 | 1.1 | 
15 | C=C1C(=O)[C@]23[C@H](O)[C@H]1CC[C@H]2[C@@]12COC3(O)[C@@H](O)[C@@H]1C(C)(C)C[C@H](n1cc(-c3ccc(C(C)(C)C)cc3)nn1)[C@H]2O [CYD-8-5] |  |  |  |  | 1.9 | 3.5 | 
